Assay results: PMC12156033, “N-Alkylamino Stilbene Compounds as Amyloid β Inhibitors for Alzheimer’s Disease Research” (Molecules, 2025)
“Also recorded” adds a separate entry of the source.

What was measured:
[1] = Alamar blue cytotoxicity assay; type: cell-based, mouse; details: mouse, Neuro2A (N2A) neuroblastoma cells, highest tested concentration (20 μM), 40 h, normalized to DMSO-only control, read-out: cell viability
Experimental: (§1) Mouse neuroblastoma Neuro2A (N2A) cell lines were purchased from the American Type Culture Collection (ATCC), Manassas, VA, USA. Cells were grown in DMEM/10% FBS, which is the regular growth media for N2A cells, in a humidified atmosphere with 5% CO2 at 37 °C. N2A cells were seeded in a clear 96-well plate (2.5 × 10^4/well) with DMEM/10% FBS. The media was changed to DMEM/N-2 media 24 h later. After 1 h, the treatment reagents were added. Owing to the poor solubility of compounds in the media, the final amount of DMSO used was 1% (v/v). After an additional incubation of 40 h, Alamar Blue solution was added to each well, and the cells were incubated for 90 min at 37 °C. Fluorescence intensity was measured at 590 nm (excitation wavelength = 560 nm).
(§2) The Alamar Blue assay was carried out as described, with the following treatment reagents: 20 μM compounds, 10 μM compounds, 5 μM compounds, and 2 μM compounds.

Aβ42 fibrils = target: T1, Aβ42 fibrils (Homo sapiens, UniProt P05067); assay: Fluorescence spectra of compounds with Aβ42 fibrils; type: binding; details: excitation 380 nm; compound 5.0 µM in PBS with Aβ fibrils
T1 construct: commercial Aβ42 peptide (AnaSpec or GL Biochem); purchased AnaSpec or GL Biochem
T1 sequence (P05067 672-713 limits assumed): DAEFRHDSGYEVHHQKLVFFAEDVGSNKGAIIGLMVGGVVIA
Experimental: (§3) All fluorescence measurements were performed using a SpectraMax M2e plate reader (Molecular Devices, San Jose, CA, USA). The fluorescence spectra of the compounds’ solution (100 μL PBS, 5.0 µM) were recorded with excitation at 380 nm and an emission wavelength from 400 to 680 nm. To PBS solutions (100 μL) of the compounds (5.0 µM), various Aβ42 species were added, with final concentrations of 5.0 µM and 25.0 µM, and their fluorescence spectra (λmax of emission) were determined as described above.
(§4) Aβ42 powder was prepared by dissolving commercial Aβ42 peptide (AnaSpec or GL Biochem) in ammonium hydroxide solution (1%, v/v). The solution was then aliquoted out and lyophilized overnight. The resulting aliquoted powder was stored at −80 °C. Aβ42 monomers were generated by dissolving Aβ42 powder in 1,1,1,3,3,3-hexafluoro-2-propanol (HFIP, 1 mM) and incubating for 1 h at room temperature. The solution was then evaporated overnight and dried by vacuum centrifuge to result in monomeric films. Aβ42 fibrils were generated by dissolving the monomeric Aβ42 films in DMSO, diluting into the appropriate buffer, and incubating for 24 h at 37 °C with continuous agitation (final DMSO concentration was <2%). For the preparation of Aβ42 oligomers, the peptides were suspended in PBS buffer and incubated overnight at 4 °C.

[2] = Fluorescence spectra of the compounds alone in PBS; type: physicochemical; details: excitation 380 nm; compound 5.0 µM in PBS
Experimental: as §3

[3] = target: T2, soluble Aβ42 aggregates (sAβ) (Homo sapiens, UniProt P05067); assay: Fluorescence spectra of compounds with soluble Aβ42 aggregates; type: binding; details: excitation 380 nm; compound 5.0 µM in PBS with soluble Aβ aggregates
T2 construct: commercial Aβ42 peptide (AnaSpec or GL Biochem); purchased AnaSpec or GL Biochem
T2 sequence (P05067 672-713 limits assumed): as above
Experimental: as §3, §4

[4] = Log D measurement octanol/PBS; type: physicochemical; details: octanol / PBS pH 7.4, 10 μM, triplicate, ± SD
Experimental: The determination of log D values for N-alkylamino multifunctional compounds was performed using a slightly modified reported procedure. The compounds (final concentration 10 μM) were added to the premix suspension containing 0.5 mL octanol and 0.5 mL octanol-saturated PBS buffer (pH = 7.4). The resulting mixture was stirred vigorously for 5 min and centrifuged at 2000 rpm for 5 min. The octanol layer was separated from the PBS layer, and the fluorescence spectrum was recorded. The remaining 0.5 mL PBS layer was partitioned with 0.5 mL PBS-saturated octanol, and the octanol layer was separated after 5 min of vigorous shaking and centrifuging. The fluorescence spectrum of the octanol layer was recorded. The log D value was calculated based on the fluorescence intensity ratio for the two octanol layers. Each experiment was completed in triplicate, and the error represents the standard deviation for the average log D values.

[5] = target: T3, amyloid plaques in 5xFAD mice brain sections (Homo sapiens, UniProt P05067); assay: Histological staining of 5xFAD mice brain sections, colocalization with HJ3.4 antibody; type: binding, mouse; details: 11-month-old 5xFAD mice brain sections, compound 25 μM, HJ3.4 1 μg/mL
T3 construct: the amyloid beta (Aβ) peptide that makes up amyloid plaques; tissue Jackson Laboratories; host or cells: brain sections from 11-month-old 5xFAD transgenic mice (Tg6799 line)
T3 sequence (P05067 672-713 limits assumed): as above
Description: To further investigate the affinity of the developed compounds toward various Aβ aggregates in situ, the intrinsic fluorescence properties of the compounds were employed for their ability to stain insoluble amyloid plaques. For these studies, brain sections from 11-month-old 5xFAD transgenic mice, which rapidly develop severe amyloid pathology, were co-stained with stilbenes and HJ3.4 antibody. HJ3.4 is an anti-amyloid antibody that binds to the N-terminal region of the Aβ peptide, thereby targeting both soluble and insoluble amyloid species. To evaluate the Aβ binding specificity of the compounds in vitro, brain sections from 11-month-old 5xFAD mice were washed with PBS (3 × 5 min) and blocked with bovine serum albumin (2% w/v BSA in PBS, pH 7.4, 10 min). Then, the sections were incubated with 25 μM of multifunctional compounds and sequentially stained with HJ3.4 antibody (Professor David Holtzman, 1 μg/mL) for 30 min. The brain sections were treated with 2% w/v BSA-PBS again for 4 min to remove any compounds or antibodies that were non-specifically binding to the tissue. Finally, the sections were washed with PBS (3 × 2 min) and DI water (2 min) and mounted with non-fluorescent mounting media (Vectashield). Colocalization analysis and determination of Pearson’s correlation coefficient were performed with the imaging software Fiji (ImageJ 1.52p). Mouse brains were harvested in compliance with the Institutional Animal Care and Use Committee of the University of Illinois at Urbana-Champaign (IACUC protocol #22094).

[6] = tested on: Cu-Aβ42 cytotoxicity on N2a cells; assay: N2a cell rescue from Cu-induced Aβ42 cytotoxicity (Alamar blue); type: cell-based, mouse; details: [Aβ42] = [CuCl2] = 20 μM, compound 5 μM
Experimental: as §1
The Alamar Blue assay was carried out as described, with the following treatment reagents: 20 μM Aβ42 species, 5 μM compounds, and 20 μM CuCl2.

[7] = target: T4, Aβ aggregates (sAβ and Aβ fibrils) (Homo sapiens, UniProt P05067); assay: Fluorescence turn-on assay with Aβ aggregates; type: binding; details: compound 5 μM in PBS pH 7.4
T4 construct: commercial Aβ42 peptide (AnaSpec or GL Biochem); purchased AnaSpec or GL Biochem
T4 sequence (P05067 672-713 limits assumed): as above
Experimental: A fluorescence turn-on assay was performed to interrogate the effect of structural differences on the fluorescence enhancement with Aβ aggregates. […] Increases in fluorescence intensity with different aggregates would be ideal for tools used in amyloid-based assays. […] Without the ortho-methoxy group on the EAG, there is greater fluorescence enhancement for Aβ fibrils over sAβ for L3 and L4. […] The larger fluorescence enhancement observed for L6 than L5 indicates the dimethylamine EDG/methoxy EAG pair has a greater TICT. The piperidine-EDG-containing L7 has only slightly higher turn-on with sAβ, which may be attributed to the ortho-methoxy group on the EAG. […] In this case, it appears that the methoxy on the EAG diminishes the overall fluorescence of the compound since L8 has greater baseline fluorescence and turn-on than L7. This is also the case for the morpholine-EDG-containing L9 and L10. The lack of a methoxy group on the L10 EAG, in conjunction with the oxygen heteroatom from the morpholine EDG, electronically favors turn-on with Aβ fibrils to a slight extent. […] Changing the EDG to a methyl piperazine, L11, increases baseline fluorescence and turn-on compared to L9. […] L11 and L12, both containing an N-methyl piperazine EDG, show similar turn-on with sAβ and fibrils, and the o-methoxy EAG of L11 increases overall baseline fluorescence compared to L12. […] The spectra for the remaining compounds can be found in the Supplementary Information (Figure S1). None of the three compounds with the highest fluorescence contained an o-methoxy group on the EAG.
as §3, with “above. […]” for “above.”

Aβ40 peptide = target: T5, Aβ40 peptide (Homo sapiens, UniProt P05067); assay: Aβ40 aggregation inhibition assay monitored by ThT fluorescence; type: biochemical; details: 25 μM Aβ40, 5 μM ThT, 5 μM compound, 37 °C, 48 h
T5 construct: a peptide solution of 25 μM Aβ40 monomers (AnaSpec, Fremont, CA, USA) was prepared; purchased AnaSpec
T5 sequence (P05067 672-711 limits assumed): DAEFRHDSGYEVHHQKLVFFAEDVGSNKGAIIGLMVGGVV
Experimental: To investigate the effect of these compounds on amyloid aggregation, inhibition of aggregation assays were performed using the Aβ40 peptide. Aβ40 has been implicated in inducing oxidative stress and is physiologically the most common isoform of the amyloid peptide and is therefore a widely used isoform in amyloid assays. Aβ40 is also known to have slower aggregation kinetics than Aβ42, which is helpful for studying the inhibition of the early aggregation pathway. […] Thus, a lower RFU can be interpreted as inhibiting the fibrillization of amyloids. The rest of the compounds show appreciable inhibition of Aβ aggregation as found in the Supplementary Materials (Figure S2), except for L9, which contains the morpholine EDG and a methoxy group on the EAG (Figure 3). The addition of the more polar oxygen heteroatom may instead favor hydrogen bonding interactions within the aqueous media, thereby solvating the compound and reducing early interactions with soluble aggregates. Lastly, although L2 and L3 show similar amyloid inhibition, the L3 compound lacking the o-methoxy group begins inhibition at an earlier time. […] This procedure was established in a previous publication.

N2a cells = assay: Alamar blue cytotoxicity assay; type: cell-based, mouse; details: among the cyclic amine EDG derivatives
Experimental: as §1, §2

soluble Aβ42 = soluble Aβ42 (Homo sapiens, UniProt P05067); assay: ThT control fluorescence turn-on assay with soluble Aβ42; type: binding; details: [Aβ42] = 5 μM, em 485 nm, ex 435 nm
soluble Aβ42, sequence (P05067 672-713 limits assumed): as the sequence (P05067 672-713 limits assumed) above
Experimental: Aβ42 and Aβ42 fibrils was used to control for soluble vs. insoluble amyloid.
text to prepare soluble and fibrillar Aβ42, the UV-vis absorbance was measured for the soluble
Aβ42 used in the control. In a cuvette, 100 μL o f [ A β42] = 20 μM. […]

Row | Compound | viability at 40 h, 20 µM [1] [%] | Compound+Fibrils λem (λmax of emission) (Aβ42 fibrils) [nm] | Compound λem (λmax of emission) [2] [nm] | Compound+sAβ λem (λmax of emission) [3] [nm] | logD [4] | Pearson's coefficient (R) of colocalization with AF594-HJ3.4 [5] | effect on Cu-stabilized Aβ42 / Aβ42-induced toxicity [6] | fluorescence enhancement / turn-on with Aβ aggregates [7] | inhibition of Aβ40 aggregation (ThT RFU) (Aβ40 peptide) | cell viability (ranking in words) (N2a cells) | fluorescence turn-on (soluble Aβ42)
1 | CNc1ccc(/C=C/c2cc(CN3CCN(C)CCN(C)CC3)c(O)c(OC)c2)cc1 [Compound L2, (E)-2-((4,7-dimethyl-1,4,7-triazonan-1-yl)methyl)-6-methoxy-4-(4-(methylamino)styryl)phenol] | 88 | 440 | 460 | 440 | 1.48 ± 0.02 | 0.54 | – | – | – | – | –
2 | CN1CCN(C)CCN(Cc2cc(/C=C/c3ccc(N4CCCCC4)cc3)ccc2O)CC1 [Compound L8, (E)-2-((4,7-dimethyl-1,4,7-triazonan-1-yl)methyl)-4-(4-(piperidin-1-yl)styryl)phenol] | – | 430 | 460 | 430 | 1.29 ± 0.01 | 0.68 | toxicity was exacerbated | highest fluorescence turn-on; also recorded: greatest overall fluorescence enhancements | best inhibition | – | –
3 | COc1cc(/C=C/c2ccc(N3CCOCC3)cc2)cc(CN2CCN(C)CCN(C)CC2)c1O [Compound L9, (E)-2-((4,7-dimethyl-1,4,7-triazonan-1-yl)methyl)-6-methoxy-4-(4-morpholinostyryl)phenol] | – | 450 | 455 | 455 | 0.93 ± 0.02 | 0.71 | inhibit both Cu-stabilized Aβ42- and Aβ42-induced toxicity; also recorded: rescue cells from Cu-Aβ42 cytotoxicity | – | least inhibition | best cell viability | –
4 | CN1CCN(C)CCN(Cc2cc(/C=C/c3ccc(N4CCN(C)CC4)cc3)ccc2O)CC1 [Compound L12, (E)-2-((4,7-dimethyl-1,4,7-triazonan-1-yl)methyl)-4-(4-(4-methylpiperazin-1-yl)styryl)phenol] | – | 435 | 450 | 430 | 0.81 ± 0.01 | 0.65 | rescue cells from Cu-Aβ42 cytotoxicity | – | – | best cell viability | –
5 | Cc1ccc2c(c1)sc(-c1ccc(N(C)C)cc1)[n+]2C [ThT, Thioflavin T] | – | – | – | – | – | – | – | – | – | – | negligible turn-on
